Data set [1] concerns SMN2 minigene (full length SMN2 minigene mRNA containing SMN2 exon 7). Nature of the data set: SMN2 minigene mRNA splicing RT-qPCR assay in cultured cells. Format: cell-based, human. The conditions noted are these: Homo sapiens, HEK293-H, read-out: EC1.5x for production of full length SMN2 mRNA. The method in brief: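 Read-out: full-length (exon 7-included) SMN2 minigene mRNA by multiplex RT-qPCR with GAPDH, efficiency-corrected (1+E)^−Ct, GAPDH-normalized and divided by vehicle. Stably transfected HEK293H cells, 24 h compound exposure, duplicates per concentration. Value is EC1.5x, reported as star ranges.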
(In general: Real-time PCR tracks product formation cycle by cycle.)

Another data set deals with Smn protein. Nature of the data set: Smn protein assay in cultured cells (SMN HTRF). Format: cell-based, human. Particulars: 48 hours; for EC1.5x (concentration giving 1.5-fold Smn protein increase): SMA Type 1 patient fibroblast cells (GM03813), 7-point concentration curve, SMN HTRF, concentration producing 1.5 times Smn protein vs DMSO vehicle control, read-out: EC1.5x for Smn protein expression; for maximum fold (Fold) increase of Smn protein: SMA patient fibroblast cells, 7-point concentration data, fold increase relative to vehicle control (SMN HTRF). The method in brief: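 Lysates in RIPA with protease inhibitors are incubated overnight at room temperature with HTRF anti-SMN antibodies. EC1.5x is derived from fold increase in ΔF over vehicle.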
On the technique in general: Time-resolved FRET reads energy transfer from a long-lived donor to a nearby acceptor.

Where [2] appears, read: HEK293H cells stably transfected with SMN2-A minigene, 24 hours, 7-point concentration curve, 1.5-fold relative to vehicle-treated cells.

Molecules are shown by their SMILES. Like-named read-outs stand apart in the source and are kept apart here.

Broadly, the melting point is the temperature, or range, at which the solid turns liquid. The compound `CCNCCOc1ccc2cc(-c3cn4cc(C)nc(C)c4n3)c(=O)oc2c1` [Compound 930, 3-(6,8-dimethylimidazo[1,2-a]pyrazin-2-yl)-7-[2-(ethylamino)ethoxy]-2H-chromen-2-one] displayed a melting point of 189 to 193 °C. Moreover, in data set [1] (setting [2]), the EC (1.5-fold) is under 0.1 µM. Moreover, in the data set on Smn protein, the EC1.5x (concentration giving 1.5-fold Smn protein increase) is under 300 nM and the “maximum fold (Fold) increase of Smn protein” value (“maximum fold (Fold) increase” below) was “***** (fold increase >1.65)”.

`CCN1CCCN(c2ccc3cc(-c4cc5c(C)nc(C)cn5c4)c(=O)oc3c2)CC1` [Compound 671, 3-(1,3-dimethylpyrrolo[1,2-a]pyrazin-7-yl)-7-(4-ethyl-1,4-diazepan-1-yl)-2H-chromen-2-one] had a melting point of 166 to 169 °C. In data set [1] (setting [2]), the EC (1.5-fold) was under 0.1 µM. Also, in the data set on Smn protein, the EC1.5x (concentration giving 1.5-fold Smn protein increase) was under 300 nM and the “maximum fold (Fold) increase” value is reported as “***** (fold increase >1.65)”.

On to `CCN1CCN(c2ccc3cc(-c4cc5c(C)nc(C)cn5c4)c(=O)oc3c2)CC1` [Compound 674, 3-(1,3-dimethylpyrrolo[1,2-a]pyrazin-7-yl)-7-(4-ethylpiperazin-1-yl)-2H-chromen-2-one], for which the melting point lay in the range of 182 to 185 °C. In data set [1] (setting [2]), the EC (1.5-fold) was under 0.1 µM. In the data set on Smn protein, the EC1.5x (concentration giving 1.5-fold Smn protein increase) is under 300 nM and the “maximum fold (Fold) increase” value is listed as “***** (fold increase >1.65)”.

On to `CCN1C[C@@H]2C[C@H]1CN2c1ccc2cc(-c3cn4cc(Cl)nc(C)c4n3)c(=O)oc2c1` [Compound 791, 3-(6-chloro-8-methylimidazo[1,2-a]pyrazin-2-yl)-7-[(1S,4S)-5-ethyl-2,5-diazabicyclo[2.2.1]hept-2-yl]-2H-chromen-2-one], for which the melting point lay within 135 to 138 °C. Also, the EC (1.5-fold) in data set [1] (setting [2]) is under 0.1 µM. In the data set with Smn protein, the EC1.5x (concentration giving 1.5-fold Smn protein increase) was 1000 to 3000 nM; the “maximum fold (Fold) increase” value is “*** (fold increase between >1.35 and ≤1.5)”.

Turning to `CN1CCN(c2ccc3cc(-c4cn5ccncc5n4)c(=O)oc3c2)CC1` [Compound 457, 3-(imidazo[1,2-a]pyrazin-2-yl)-7-(4-methylpiperazin-1-yl)-2H-chromen-2-one], the melting point lay in the range of 246 to 249 °C. The EC (1.5-fold) in data set [1] (setting [2]) was 0.1 to 0.3 µM. Besides, the “maximum fold (Fold) increase” value in the data set on Smn protein was “** (fold increase between >1.2 and ≤1.35)”.

`CCN1CCC(c2ccc3cc(-c4cnc5nc(C)cn5c4)c(=O)oc3c2)CC1` [Compound 836, 7-(1-ethylpiperidin-4-yl)-3-(2-methylimidazo[1,2-a]pyrimidin-6-yl)-2H-chromen-2-one] yielded a melting point of 288 to 290 °C. For the same compound, the EC (1.5-fold) in data set [1] (setting [2]) lay in the range of 0.3 to 1 µM. Besides, in the data set on Smn protein, the EC1.5x (concentration giving 1.5-fold Smn protein increase) was in the range of 300 to 1000 nM and the “maximum fold (Fold) increase” value is recorded as “***** (fold increase >1.65)”.

For the compound `Cc1cc(F)c2nc(-c3cc4ccc(N5CCN6CCCCC6C5)cc4oc3=O)cn2c1` (centres unmarked) [Compound 612, 3-(8-fluoro-6-methylimidazo[1,2-a]pyridin-2-yl)-7-(octahydro-2H-pyrido[1,2-a]pyrazin-2-yl)-2H-chromen-2-one], the melting point was in the range of 268 to 275 °C. For the same compound, the EC (1.5-fold) in data set [1] (setting [2]) lay in the range of 0.3 to 1 µM. For the same compound, in the data set on Smn protein, the “maximum fold (Fold) increase” value was “** (fold increase between >1.2 and ≤1.35)”.

Regarding `C[C@@H]1CN(c2cc(F)c3cc(-c4cn5cccnc5n4)c(=O)oc3c2)C[C@H](C)N1` [Compound 352, 7-[(3R,5S)-3,5-dimethylpiperazin-1-yl]-5-fluoro-3-(imidazo[1,2-a]pyrimidin-2-yl)-2H-chromen-2-one], the melting point was 290 to 292 °C. Besides, the EC (1.5-fold) in data set [1] (setting [2]) is 0.1 to 0.3 µM. Moreover, the “maximum fold (Fold) increase” value with Smn protein is “* (maximum fold increase of ≤1.2)”.

`Cc1cn2cc(-c3cc4c(F)cc(N5CCCN(C)CC5)cc4oc3=O)nc2cn1` [Compound 591, 5-fluoro-7-(4-methyl-1,4-diazepan-1-yl)-3-(6-methylimidazo[1,2-a]pyrazin-2-yl)-2H-chromen-2-one] registered a melting point of 210 to 212 °C. For the same compound, in data set [1] (setting [2]), the EC (1.5-fold) is under 0.1 µM. Also, in the data set on Smn protein, the EC1.5x (concentration giving 1.5-fold Smn protein increase) is under 300 nM and the “maximum fold (Fold) increase” value was “***** (fold increase >1.65)”.

For `Cc1cn2cc(-c3cc4ccc(NC5CNC5)cc4oc3=O)nc2c(C)n1` [Compound 619, 7-(azetidin-3-ylamino)-3-(6,8-dimethylimidazo[1,2-a]pyrazin-2-yl)-2H-chromen-2-one], the melting point was in the range of 250 to 256 °C. In data set [1] (setting [2]), the EC (1.5-fold) is under 0.1 µM. In the data set on Smn protein, the EC1.5x (concentration giving 1.5-fold Smn protein increase) is under 300 nM; the “maximum fold (Fold) increase” value is “**** (fold increase between >1.5 and ≤1.65)”.

The compound `Cc1cn2cc(-c3cc4ccc(N5C[C@@H]6CCCN[C@@H]6C5)cc4oc3=O)nc2c(C)n1` [Compound 794, 3-(6,8-dimethylimidazo[1,2-a]pyrazin-2-yl)-7-[(4aS,7aS)-octahydro-6H-pyrrolo[3,4-b]pyridin-6-yl]-2H-chromen-2-one] returned a melting point of 246 to 253 °C. For the same compound, the EC (1.5-fold) in data set [1] (setting [2]) was under 0.1 µM. In addition, in the data set with Smn protein, the EC1.5x (concentration giving 1.5-fold Smn protein increase) was under 300 nM; the “maximum fold (Fold) increase” value is “**** (fold increase between >1.5 and ≤1.65)”.

For `O=c1oc2cc(N3CCNCC3)ccc2cc1-c1ccnc(Cl)c1` [Compound 180, 3-(2-chloropyridin-4-yl)-7-(piperazin-1-yl)-2H-chromen-2-one], the melting point lay in the range of 190 to 192 °C. Also, the EC (1.5-fold) in data set [1] (24 h) was under 0.1 µM. Moreover, in the data set on Smn protein, the “maximum fold (Fold) increase” value is on record as “* (maximum fold increase of ≤1.2)”.

Take `Cc1cn2cc(-c3cc4ccc(N5C[C@@H](C)N(C)[C@@H](C)C5)cc4oc3=O)nc2c(C)n1` [Compound 605, 3-(6,8-dimethylimidazo[1,2-a]pyrazin-2-yl)-7-[(3R,5S)-3,4,5-trimethylpiperazin-1-yl]-2H-chromen-2-one]: the melting point lay in the range of 229 to 232 °C. In addition, the EC (1.5-fold) in data set [1] (setting [2]) is under 0.1 µM. Moreover, in the data set with Smn protein, the EC1.5x (concentration giving 1.5-fold Smn protein increase) was under 300 nM and the “maximum fold (Fold) increase” value is “***** (fold increase >1.65)”.

The compound `Cc1csc(-c2cc3ccc(N4CCNCC4)cc3oc2=O)c1` [Compound 318, 3-(4-methylthiophen-2-yl)-7-(piperazin-1-yl)-2H-chromen-2-one] showed a melting point of 218 to 220 °C. The EC (1.5-fold) in data set [1] (24 h) lay within 1 to 3 µM. Further, the “maximum fold (Fold) increase” value in the data set with Smn protein is reported as “* (maximum fold increase of ≤1.2)”.

`O=c1oc2cc(N3CCNCC3)ccc2cc1-c1cn2ccsc2n1` [Compound 88, 3-(imidazo[2,1-b][1,3]thiazol-6-yl)-7-(piperazin-1-yl)-2H-chromen-2-one] returned a melting point of 275 to 280 °C. The EC (1.5-fold) in data set [1] (setting [2]) is under 0.1 µM. Also, in the data set with Smn protein, the EC1.5x (concentration giving 1.5-fold Smn protein increase) lay in the range of 1000 to 3000 nM; the “maximum fold (Fold) increase” value is “*** (fold increase between >1.35 and ≤1.5)”.

In turn, `Cc1ccc2nc(-c3cc4ccc(N(C)C5CCN(C)CC5)cc4oc3=O)cn2c1` [Compound 282, 3-(6-methylimidazo[1,2-a]pyridin-2-yl)-7-[methyl(1-methylpiperidin-4-yl)amino]-2H-chromen-2-one] gave a melting point of 181 to 184 °C. Besides, the EC (1.5-fold) in data set [1] (24 h) is 1 to 3 µM. Also, the “maximum fold (Fold) increase” value in the data set on Smn protein is “* (maximum fold increase of ≤1.2)”.

In turn, `CN1CCN(c2ccc3cc(-c4cn5cc(F)cc(F)c5n4)c(=O)oc3c2)CC1` [Compound 522, 3-(6,8-difluoroimidazo[1,2-a]pyridin-2-yl)-7-(4-methylpiperazin-1-yl)-2H-chromen-2-one] yielded a melting point of 232 to 238 °C. In addition, the EC (1.5-fold) in data set [1] (setting [2]) fell in the range of 0.3 to 1 µM. For the same compound, the “maximum fold (Fold) increase” value with Smn protein was “* (maximum fold increase of ≤1.2)”.

In turn, `O=c1oc2cc(N3CCNCC3)ccc2cc1-c1cccc(C(F)(F)F)n1` [Compound 90, 7-(piperazin-1-yl)-3-[6-(trifluoromethyl)pyridin-2-yl]-2H-chromen-2-one] yielded a melting point of 158 to 160 °C. The EC (1.5-fold) in data set [1] (setting [2]) lay within 0.3 to 1 µM. Further, the “maximum fold (Fold) increase” value in the data set with Smn protein was “*** (fold increase between >1.35 and ≤1.5)”.

Compound `CCN1CCC[C@@H]2CN(c3ccc4cc(-c5cn6cc(C)nc(C)c6n5)c(=O)oc4c3)C[C@@H]21` [Compound 786, 3-(6,8-dimethylimidazo[1,2-a]pyrazin-2-yl)-7-[(4aR,7aR)-1-ethyloctahydro-6H-pyrrolo[3,4-b]pyridin-6-yl]-2H-chromen-2-one] showed a melting point of 215 to 221 °C. For the same compound, the EC (1.5-fold) in data set [1] (setting [2]) was under 0.1 µM. For the same compound, in the data set on Smn protein, the EC1.5x (concentration giving 1.5-fold Smn protein increase) is under 300 nM; the “maximum fold (Fold) increase” value is “**** (fold increase between >1.5 and ≤1.65)”.

Values taken from patent publication USRE47689E1, “Compounds for treating spinal muscular atrophy” (PTC Therapeutics, Inc., priority 2011, dated 2019).
